Results: patent US8952024B2, “Herbicidal pyrimidone derivatives” (E I du Pont de Nemours and Company, priority 2009, dated 2015)

Experiments:
Type in all cases: in vivo
[1] = tested on: umbrella sedge (Cyperus difformis); assay: Test B flooded paddy test; details: for Plant response rating, Sedge, Umbrella: Flood (flooded paddy test), 13 to 15 days; for Sedge, Umbrella plant response rating: Flood, 31 g ai/ha, scale 0 to 100 (0 no effect, 100 complete control)
Method in brief: (§1)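 Ratings are visual, 0–100 (100 = complete control), taken versus untreated controls 13 to 15 days after treatment in the greenhouse. Compound went straight into paddy water held 3 cm above soil, applied to 2-leaf-stage plants of four species.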

[2] = tested on: ducksalad (Heteranthera limosa); assay: Test B flooded paddy test; details: for Plant response rating, Ducksalad: Flood (flooded paddy test), 13 to 15 days; for Ducksalad plant response rating: Flood, 31 g ai/ha, scale 0 to 100 (0 no effect, 100 complete control)
Method in brief: as §1

[3] = tested on: barnyardgrass (Echinochloa crus-galli); assay: Test B flooded paddy test; details: for Plant response rating, Barnyardgrass: Flood (flooded paddy test), 13 to 15 days; for Barnyardgrass plant response rating: Flood, 31 g ai/ha, scale 0 to 100 (0 no effect, 100 complete control)
Method in brief: as §1

[4] = tested on: rice (Oryza sativa); assay: Test B flooded paddy test; details: for Plant response rating, Rice: Flood (flooded paddy test), 13 to 15 days; for Rice plant response rating: Flood, 31 g ai/ha, scale 0 to 100 (0 no effect, 100 complete control)
Method in brief: as §1

[5] = tested on: large crabgrass (Digitaria sanguinalis); assay: Test A pre-/postemergence plant response; details: for Crabgrass, Large plant response rating: visual injury, 0 to 100 scale (0 no effect, 100 complete control), approx. ten days
Method in brief: (§2)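 Injury was scored visually after roughly ten days against untreated controls, 0 = no effect, 100 = complete control. Test chemicals in a surfactant-containing non-phytotoxic solvent were sprayed either onto soil preemergence or onto one- to two-leaf, 2–10 cm plants postemergence.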

[6] = tested on: morningglory (Ipomoea spp.); assay: Test A pre-/postemergence plant response; details: for Morningglory plant response rating: visual injury, 0 to 100 scale (0 no effect, 100 complete control), approx. ten days
Method in brief: as §2

[7] = tested on: barnyardgrass (Echinochloa crus-galli); assay: Test A pre-/postemergence plant response; details: for Barnyardgrass plant response rating: visual injury, 0 to 100 scale (0 no effect, 100 complete control), approx. ten days
Method in brief: as §2

[8] = tested on: pigweed (Amaranthus retroflexus); assay: Test A pre-/postemergence plant response; details: for Pigweed plant response rating: visual injury, 0 to 100 scale (0 no effect, 100 complete control), approx. ten days
Method in brief: as §2

[9] = tested on: giant foxtail (Setaria faberii); assay: Test A pre-/postemergence plant response; details: for Foxtail, Giant plant response rating: visual injury, 0 to 100 scale (0 no effect, 100 complete control), approx. ten days
Method in brief: as §2

[10] = tested on: velvetleaf (Abutilon theophrasti); assay: Test A pre-/postemergence plant response; details: for Velvetleaf plant response rating: visual injury, 0 to 100 scale (0 no effect, 100 complete control), approx. ten days
Method in brief: as §2

[11] = tested on: corn (Zea mays); assay: Test A pre-/postemergence plant response; details: for Corn plant response rating: visual injury, 0 to 100 scale (0 no effect, 100 complete control), approx. ten days
Method in brief: as §2

[12] = tested on: wheat (Triticum aestivum); assay: Test A pre-/postemergence plant response; details: for Wheat plant response rating: visual injury, 0 to 100 scale (0 no effect, 100 complete control), approx. ten days
Method in brief: as §2

[13] = 250 g ai/ha, flooded paddy test, visual rating on 0 to 100 scale (0 no effect, 100 complete control) after 13 to 15 days
[14] = 62 g ai/ha, scale of 0 to 100 where 0 is no effect and 100 is complete control
[15] = 125 g ai/ha, scale 0 to 100, 0 is no effect, 100 is complete control
[16] = Postemergence, 125 g ai/ha, 0 to 100 scale where 0 is no effect and 100 is complete control
[17] = Preemergence, 125 g ai/ha, 0 to 100 scale, 0 = no effect, 100 = complete control
[18] = Preemergence, 500 g ai/ha, 0 to 100 scale, 0 = no effect, 100 = complete control

## Cc1ccc(-n2c(-c3cc(F)cc(F)c3)ncc(C(=O)C3=C(O)CCCC3=O)c2=O)cc1 [Compound 162]
[1]; [13]
  Plant response rating, Flood, Sedge, Umbrella: 100
[1]; [14]
  Plant response rating, Sedge, Umbrella: 100
[1]; [15]
  Plant response rating, Sedge, Umbrella: 100
[1]
  Sedge, Umbrella plant response rating: 95
[2]; [13]
  Plant response rating, Flood, Ducksalad: 100
[2]; [14]
  Plant response rating, Ducksalad: 100
[2]; [15]
  Plant response rating, Ducksalad: 100
[2]
  Ducksalad plant response rating: 98
[3]; [13]
  Plant response rating, Flood, Barnyardgrass: 55
[3]; [14]
  Plant response rating, Barnyardgrass: 25
[3]; [15]
  Plant response rating, Barnyardgrass: 40
[3]
  Barnyardgrass plant response rating: 20
[4]; [13]
  Plant response rating, Flood, Rice: 90
[4]; [14]
  Plant response rating, Rice: 25
[4]; [15]
  Plant response rating, Rice: 90
[4]
  Rice plant response rating: 0
[5]; [16]
  Plant response rating, Crabgrass, Large: 80
[5]; Postemergence, 500 g ai/ha
  Crabgrass, Large plant response rating: 100
[5]; [17]
  Plant response rating, Crabgrass, Large: 90
[5]; [18]
  Plant response rating, Crabgrass, Large: 100
[6]; [16]
  Plant response rating, Morningglory: 100
[6]; Postemergence, 500 g ai/ha
  Morningglory plant response rating: 100
[6]; [17]
  Plant response rating, Morningglory: 0
[6]; [18]
  Plant response rating, Morningglory: 80
[7]; [16]
  Plant response rating, Barnyardgrass: 100
[7]; Postemergence, 500 g ai/ha
  Barnyardgrass plant response rating: 100
[7]; [17]
  Plant response rating, Barnyardgrass: 10
[7]; [18]
  Plant response rating, Barnyardgrass: 100
[8]; [16]
  Plant response rating, Pigweed: 100
[8]; Postemergence, 500 g ai/ha
  Pigweed plant response rating: 100
[8]; [17]
  Plant response rating, Pigweed: 100
[8]; [18]
  Plant response rating, Pigweed: 100
[9]; [16]
  Plant response rating, Foxtail, Giant: 70
[9]; Postemergence, 500 g ai/ha
  Foxtail, Giant plant response rating: 100
[9]; [17]
  Plant response rating, Foxtail, Giant: 30
[9]; [18]
  Plant response rating, Foxtail, Giant: 90
[10]; [16]
  Plant response rating, Velvetleaf: 100
[10]; Postemergence, 500 g ai/ha
  Velvetleaf plant response rating: 100
[10]; [17]
  Plant response rating, Velvetleaf: 60
[10]; [18]
  Plant response rating, Velvetleaf: 100
[11]; [16]
  Plant response rating, Corn: 0
[11]; Postemergence, 500 g ai/ha
  Corn plant response rating: 50
[11]; [17]
  Plant response rating, Corn: 0
[11]; [18]
  Plant response rating, Corn: 0
[12]; [16]
  Plant response rating, Wheat: 30
[12]; Postemergence, 500 g ai/ha
  Wheat plant response rating: 50
[12]; [17]
  Plant response rating, Wheat: 0
[12]; [18]
  Plant response rating, Wheat: 50

## CCCn1c(-c2cc(Cl)cc(Cl)c2)ncc(C(=O)C2=C(O)CCCC2=O)c1=O [Compound 173]
[1]; [15]
  Plant response rating, Sedge, Umbrella: 85
[1]
  Sedge, Umbrella plant response rating: 0
[2]; [15]
  Plant response rating, Ducksalad: 75
[2]
  Ducksalad plant response rating: 30
[3]; [15]
  Plant response rating, Barnyardgrass: 15
[3]
  Barnyardgrass plant response rating: 0
[4]; [15]
  Plant response rating, Rice: 15
[4]
  Rice plant response rating: 0
[5]; [16]
  Plant response rating, Crabgrass, Large: 70
[5]; Postemergence, 500 g ai/ha
  Crabgrass, Large plant response rating: 90
[5]; [17]
  Plant response rating, Crabgrass, Large: 40
[5]; [18]
  Plant response rating, Crabgrass, Large: 100
[6]; [16]
  Plant response rating, Morningglory: 100
[6]; Postemergence, 500 g ai/ha
  Morningglory plant response rating: 100
[6]; [17]
  Plant response rating, Morningglory: 0
[7]; [16]
  Plant response rating, Barnyardgrass: 90
[7]; Postemergence, 500 g ai/ha
  Barnyardgrass plant response rating: 100
[7]; [17]
  Plant response rating, Barnyardgrass: 0
[7]; [18]
  Plant response rating, Barnyardgrass: 60
[8]; [16]
  Plant response rating, Pigweed: 100
[8]; Postemergence, 500 g ai/ha
  Pigweed plant response rating: 100
[8]; [17]
  Plant response rating, Pigweed: 50
[8]; [18]
  Plant response rating, Pigweed: 90
[9]; [16]
  Plant response rating, Foxtail, Giant: 70
[9]; Postemergence, 500 g ai/ha
  Foxtail, Giant plant response rating: 90
[9]; [17]
  Plant response rating, Foxtail, Giant: 20
[9]; [18]
  Plant response rating, Foxtail, Giant: 40
[10]; [16]
  Plant response rating, Velvetleaf: 100
[10]; Postemergence, 500 g ai/ha
  Velvetleaf plant response rating: 100
[10]; [17]
  Plant response rating, Velvetleaf: 70
[10]; [18]
  Plant response rating, Velvetleaf: 100
[11]; [16]
  Plant response rating, Corn: 0
[11]; Postemergence, 500 g ai/ha
  Corn plant response rating: 20
[11]; [17]
  Plant response rating, Corn: 0
[11]; [18]
  Plant response rating, Corn: 10
[12]; [16]
  Plant response rating, Wheat: 0
[12]; Postemergence, 500 g ai/ha
  Wheat plant response rating: 60
[12]; [17]
  Plant response rating, Wheat: 0
[12]; [18]
  Plant response rating, Wheat: 20
